Laboratory results taken from patent US8865656B2, “Beta-hairpin peptidomimetics having CXCR4 antagonizing activity” (Polyphor AG, priority 2009, dated 2014).
Like-named read-outs stand apart in the source and are kept apart here. Starred links: 1 amine or outer side, 2 acyl side, 3 side chain; linkers in the order of their positions; H or OH if unused. Positions of bridges follow the written chain, without caps; N, C: chain ends. Non-standard residues stand in square brackets, D forms with d. Residues, ends and D or L forms follow the SMILES beside them. X2 = O=C(CC[C@H](Cc1ccc(O)cc1)N[*:1])[*:2]; X1 = O=C(C(O)CCN[*:1])[*:2]; Dab = NCC[C@H](N)C(=O)O

Columns and labels:
[1] = tested on: human red blood cells (hRBC); conditions: red cells of human, 1 h
Experimental: The peptides were tested for their hemolytic activity against human red blood cells (hRBC). Fresh hRBC were washed three times with phosphate buffered saline (PBS) and centrifuged for 10 min at 2000×g. Compounds (100 μM) were incubated with 20% hRBC (v/v) for 1 h at 37° C. The final erythrocyte concentration was approximately 0.9×10^9 cells/mL. A value of 0% and 100% cell lyses, respectively, was determined by incubation of hRBC in the presence of PBS alone and 0.1% Triton X-100 in H2O, respectively. The samples were centrifuged, the supernatants were 20-fold diluted in PBS buffer and the optical densities (OD) were measured at 540 nm.
Percent hemolysis was calculated as follows: (OD540peptide/OD540H2O)×100%.

[2] = Plasma stability in human plasma
Experimental: (§1) The stability of the peptides in human and mouse plasma was determined by applying the following method: 315 μL/deep well of freshly thawed human plasma (Basler Blutspende-dienst) and mouse plasma (Harlan Sera-Lab, UK), respectively, were spiked with 35 μL/well of compound in PBS (100 μM, triplicate) and incubated at 37° C. […] Following shaking for 2 min the occurred suspensions were filtrated by vacuum and finally, 100 μL of each filtrate were transferred to a propylene microtiter plate, and analyzed by LC/MS as follows: Column: Waters, XBridge C18, mobile phases: (A) water+0.1% formic acid and (B) acetonitrile/water, 95/5 (v/v)+0.1% formic acid, gradient: 5%-100% (B) in 2 minutes, electrospray ionization, MRM detection (triple quadrupole). The peak areas were determined and triplicate values are averaged. The stability is expressed in percent of the initial value at t=0. (tx/to×100). By using the TREND function of EXCEL (Microsoft Office 2003) T1/2 were determined.

human CXCR4 = molecular target: T1, human CXCR4 (Homo sapiens, UniProt P61073); assay: Ca2+-assay: CXCR4-antagonizing activity (SDF-1 induced calcium mobilization); format: cell-based; conditions: mouse pre-B cell line 300-19 stably transfected with human CXCR4, read-out: IC50% [nM] ± SD, CXCR4 receptor
T1 construct: expressed in transfected cells; host or cells: mouse pre-B cell line 300-19
T1 sequence (P61073 whole entry): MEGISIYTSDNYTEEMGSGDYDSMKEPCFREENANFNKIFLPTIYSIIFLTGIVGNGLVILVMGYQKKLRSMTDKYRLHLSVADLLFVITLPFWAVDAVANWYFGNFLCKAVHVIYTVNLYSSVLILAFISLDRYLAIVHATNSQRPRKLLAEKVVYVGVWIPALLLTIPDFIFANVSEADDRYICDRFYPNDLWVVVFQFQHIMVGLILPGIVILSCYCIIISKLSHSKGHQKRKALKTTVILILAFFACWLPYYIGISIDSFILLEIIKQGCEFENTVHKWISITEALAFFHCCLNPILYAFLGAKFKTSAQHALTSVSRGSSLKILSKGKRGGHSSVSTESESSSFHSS
Description: 2.3. Ca^2+-Assay: CXCR4-Antagonizing Activity of the Peptides
Increases in intracellular calcium were monitored using a Flexstation 384 (Molecular Devices, Sunnyvale, Calif.) to assay the depsipeptides for CXCR4 antagonism in a mouse pre-B cell line 300-19 stably transfected with human CXCR4 (E. Oberlin, A. Amara, F. Bachelerie, C. Bessia, J.-L. Virelizier, F. Arenzana-Seisdedos, O. Schwartz, J.-M. Heard, I. Clark-Lewis, D. F. Legler, M. Loetscher, M. Baggiolini, B. Moser, Nature 1996, 382, 833-835; M. Loetscher, T. Geiser, T. O'Reilly, R. Zwalen, M. Baggiolini, B. Moser, J. Biol. Chem. 1994, 269, 232-237; M. D'Apuuo, A. Rolink, M. Loetscher, J. A. Hoxie, I. Clark-Lewis, F. Melchors, M. Baggiolini, B. Moser, Eur. J. Immunol. 1997, 27, 1788-1793). The cells were batch loaded with the Calcium 4 Assay kit (Molecular Devices) in assay buffer (Hanks Balanced salt solution [HBSS], 20 mM HEPES, pH 7.4, 0.1% BSA) for 1 h at room temperature and labeled cells were dispensed into black 96 well assays plates (Costar No. 3603). Calcium mobilization induced by stromal-derived factor-1 (SDF-1) was measured in the Flexstation 384 (excitation: 485 nm; emission: 525 nm) for 90 seconds. Antagonist activity of peptides was determined by spiking the cells with compounds prior to SDF-1 addition. Dose response curves (compound concentration versus % maximum response for SDF-1) were determined for each antagonist and IC50 values were calculated by fitting the data to a four parameter logistic equation using SoftmaxPro 4.8 (Molecular Devices).

in vitro [3] = format: cell-based
Experimental: (§2) The cytotoxicity of the depsipeptides to HELA cells (Acc57) and COS-7 cells (CRL-1651) was determined using the MTT reduction assay (T. Mossman, J. Immunol. Meth. 1983, 65, 55-63; M. V. Berridge, A. S. Tan, Arch. Biochem. Biophys. 1993, 303, 474-482). Briefly, the method was as follows: 7000 HELA cells/well and 4500 COS-7 cells/well were seeded and grown in 96-well microtiter plates for 24 h at 37° C. at 5% CO2. Thereafter, time zero (Tz) was determined by MTT reduction (see below). The supernatant of the remaining wells was discarded, and fresh medium and compounds in serial dilutions (12.5, 25 and 50 μM, triplicates) were pipetted into the wells. After incubation of the cells for 48 h at 37° C. at 5% CO2 the supernatant was discarded again and 100 μL MTT reagent (0.5 mg/mL in RPMI1640 and DMEM, respectively)/well was added. Following incubation at 37° C. for 2 h the media were aspirated and the cells were spiked (100 μL isopropanol/well). The absorbance of the solubilized formazan was measured at 595 nm (OD595peptide). For each concentration averages were calculated from triplicates. The percentage of growth was calculated as follows: (OD595peptide-OD595Tz-OD595Empty well)/(OD595Tz-OD595Empty well)×100%. The GI50 (Growth Inhibition) concentrations were calculated for each depsipeptide by using a trend line function for the concentrations (50, 25, 12.5 and 0 μM), the corresponding percentages and the value 50, (=TREND (C50:C0, %50:%0, 50).

[4] = Plasma stability in mouse plasma
Experimental: as §1

in vitro [5] = format: cell-based; remark: listed apart in the source
Experimental: as §2

[6] = human plasma, 37° C., sampling up to 240 min
[7] = mouse plasma, 37° C., sampling up to 240 min

## C[C@@H]1NC(=O)[C@H](Cc2c[nH]cn2)NC(=O)[C@H](Cc2ccc(O)cc2)NC(=O)[C@@H]2CCCN2C(=O)[C@@H](Cc2cn(Cc3ccccc3)cn2)NC(=O)[C@H](CCCCN)NC(=O)[C@H](CCC(N)=O)NC(=O)[C@H](Cc2ccc(O)cc2)NC(=O)[C@@H]2CSSC[C@H](NC1=O)C(=O)N[C@@H](CO)C(=O)N[C@@H](C)C(=O)N1CCC[C@@H]1C(=O)N[C@@H](CCN)C(=O)N[C@@H](CCCNC(=N)N)C(=O)N[C@@H](Cc1ccc(O)cc1)C(=O)N2 [compound 5]
[1]
  Hemolysis at 100 μM: 1%
[2]; [6]
  Plasmastability human pl. T1/2: 4 h
Human CXCR4
  IC50: 0.92 ± 0.2 nM
In vitro [3]; human
  GI50: > 50 µM
[4]; [7]
  Plasmastability mouse pl. T1/2: 4 h
In vitro [5]; African green monkey
  GI50: > 50 µM

## C[C@@H]1NC(=O)[C@H](Cc2c[nH]cn2)NC(=O)[C@H](Cc2ccc(O)cc2)NC(=O)[C@@H]2CCCN2C(=O)[C@H]2CCCN2C(=O)[C@H](CCCCN)NC(=O)[C@H](CCC(N)=O)NC(=O)[C@H](Cc2ccc(O)cc2)NC(=O)[C@@H]2CSSC[C@H](NC1=O)C(=O)NCCC(O)C(=O)N[C@@H](C)C(=O)N1CCC[C@@H]1C(=O)N[C@@H](CCN)C(=O)N[C@@H](CCCNC(=N)N)C(=O)N[C@@H](Cc1ccc(O)cc1)C(=O)N2 (stereo partly drawn) [compound 19] (cyclo(YHAC[X1]A[dP][Dab]RYCYQK[dP]P); disulfide 4-11)
[1]
  Hemolysis at 100 μM: 1.8%
[2]; human, plasma
  Plasmastability human pl. T1/2: 4 h
Human CXCR4
  IC50: 1.1 ± 0.6 nM
In vitro [3]
  GI50: > 50 µM
[4]; mouse, plasma
  Plasmastability mouse pl. T1/2: 4 h
In vitro [5]
  GI50: > 50 µM

## C[C@@H]1NC(=O)[C@H](Cc2c[nH]cn2)NC(=O)[C@H](Cc2ccc(O)cc2)NC(=O)[C@@H]2CCCN2C(=O)CN(CCCCN)C(=O)[C@H](CCCCN)NC(=O)[C@H](CCC(N)=O)NC(=O)[C@H](Cc2ccc(O)cc2)NC(=O)[C@@H]2CSSC[C@H](NC1=O)C(=O)N[C@@H](CO)C(=O)N[C@@H](C)C(=O)N1CCC[C@@H]1C(=O)N[C@@H](CCN)C(=O)N[C@@H](CCCNC(=N)N)C(=O)N[C@@H](Cc1ccc(O)cc1)C(=O)N2 [compound 9]
[1]
  Hemolysis at 100 μM: 2.1%
[2]; [6]
  Plasmastability human pl. T1/2: 4 h
Human CXCR4
  IC50: 0.09 ± 0.05 nM
In vitro [3]; human
  GI50: > 50 µM
[4]; [7]
  Plasmastability mouse pl. T1/2: 4 h
In vitro [5]; African green monkey
  GI50: > 50 µM

## C[C@@H]1NC(=O)[C@H](Cc2c[nH]cn2)NC(=O)[C@H](Cc2ccc(O)cc2)NC(=O)[C@@H]2CCCN2C(=O)[C@@H](CCCCN)N(C)C(=O)[C@H](CCCCN)NC(=O)[C@H](CCC(N)=O)NC(=O)[C@H](Cc2ccc(O)cc2)NC(=O)[C@@H]2CSSC[C@H](NC1=O)C(=O)N[C@@H](CO)C(=O)N[C@@H](C)C(=O)N1CCC[C@@H]1C(=O)N[C@@H](CCN)C(=O)N[C@@H](CCCNC(=N)N)C(=O)N[C@@H](Cc1ccc(O)cc1)C(=O)N2 [compound 8]
[1]
  Hemolysis at 100 μM: 0.3%
[2]; [6]
  Plasmastability human pl. T1/2: 4 h
Human CXCR4
  IC50: 0.31 ± 0.2 nM
In vitro [3]; human
  GI50: > 50 µM
[4]; [7]
  Plasmastability mouse pl. T1/2: 4 h
In vitro [5]; African green monkey
  GI50: > 50 µM

## C[C@@H]1NC(=O)[C@H](Cc2c[nH]cn2)NC(=O)[C@H](Cc2ccc(O)cc2)NC(=O)[C@@H]2CCCN2C(=O)[C@@H](CC2CCCCC2)NC(=O)[C@H](CCCCN)NC(=O)[C@H](CCC(N)=O)NC(=O)[C@H](Cc2ccc(O)cc2)NC(=O)[C@@H]2CSSC[C@H](NC1=O)C(=O)N[C@@H](CO)C(=O)N[C@@H](C)C(=O)N1CCC[C@@H]1C(=O)N[C@@H](CCN)C(=O)N[C@@H](CCCNC(=N)N)C(=O)N[C@@H](Cc1ccc(O)cc1)C(=O)N2 [Ex. 1]
[1]
  Hemolysis at 100 μM: 0%
[2]; [6]
  Plasmastability human pl. T1/2: 4 h
Human CXCR4
  IC50: 1.3 ± 0.4 nM
In vitro [3]; human
  GI50: > 50 µM
[4]; [7]
  Plasmastability mouse pl. T1/2: 4 h
In vitro [5]; African green monkey
  GI50: > 50 µM

## C[C@@H]1NC(=O)[C@H](Cc2c[nH]cn2)NC(=O)CC[C@H](Cc2ccc(O)cc2)NC(=O)[C@@H]2CCCN2C(=O)[C@H]2CCCN2C(=O)[C@H](CCCCN)NC(=O)[C@H](CCC(N)=O)NC(=O)[C@H](Cc2ccc(O)cc2)NC(=O)[C@@H]2CSSC[C@H](NC1=O)C(=O)N[C@@H](CO)C(=O)N[C@@H](C)C(=O)N1CCC[C@@H]1C(=O)N[C@@H](CCN)C(=O)N[C@@H](CCCNC(=N)N)C(=O)N[C@@H](Cc1ccc(O)cc1)C(=O)N2 [compound 18] (cyclo([X2]HACSA[dP][Dab]RYCYQK[dP]P); disulfide 4-11)
[1]
  Hemolysis at 100 μM: 1.4%
[2]; human, plasma, 10 μM
  Plasmastability human pl. T1/2: 4 h
Human CXCR4
  IC50: 0.39 ± 0.5 nM
In vitro [3]; human
  GI50: > 50 µM
[4]; mouse, plasma, 10 μM
  Plasmastability mouse pl. T1/2: 4 h
In vitro [5]; African green monkey
  GI50: > 50 µM
